Values quoted from earlier work, collected in patent US20260345593A1, “ORAL FORMULATION OF N-PYRIDINYL ACETAMIDE DERIVATIVE FOR TREATING INTERSTITIAL LUNG DISEASE” (AstraZeneca AB, priority 2022, published 2026).

Experiments:
[1] = test system: ILD patients with SSc-ILD; details: SSc-ILD (Khanna 2020); cited from earlier work
[2] = test system: patients with IPF; details: cited from earlier work; for rate of decline in lung function: patients with IPF (King 2014 and Richeldi 2014); for GI side effects / tolerability in IPF patients: patients with IPF
[3] = test system: patients with ILD-PF other than IPF; details: ILD-PF other than IPF (Wells 2020); cited from earlier work
[4] = test system: Axin2 expression levels in skin samples from subjects with advanced cancers; details: 10 mg once daily, cited from earlier work
[5] = 20 mg BID, preclinical and clinical studies; cited from earlier work
[6] = test system: pH elevation; details: 20 mg BID oral pre-treatment; cited from earlier work

Compound | rate of decline in lung function [2] | GI side effects [2] | tolerability in IPF patients [2] | further results
Tocilizumab: a monoclonal antibody directed against the IL-6 receptor |  |  |  | progression of lung disease [1]: slow progression of lung disease
COC(=O)c1ccc2c(c1)NC(=O)/C2=C(\Nc1ccc(N(C)C(=O)CN2CCN(C)CC2)cc1)c1ccccc1 [nintedanib, methyl (3Z)-3-{[(4-{methyl[(4-methylpiperazin-1-yl)acetyl]amino}phenyl)amino](phenyl)methylidene}-2-oxo-2,3-dihydro-1H-indole-6-carboxylate] | slow the rate of decline in lung function | troublesome GI side effects | many patients with IPF are not able to tolerate these medications | rate of decline in lung function [3]: slow the rate of decline in lung function in these patients
Cc1cc(-c2ncc(CC(=O)Nc3ccc(-c4cnccn4)cn3)cc2C)ccn1 [Wnt974] |  |  |  | reduction in Axin2 expression levels in skin samples ([4]; subjects with advanced cancers (Rodon 2021)): approximately 90%; average Ctrough at steady state ([4]; subjects with advanced cancers): 3.7 ×IC50
COCCCOc1ccnc(C[S+]([O-])c2nc3ccccc3[nH]2)c1C (racemic) [rabeprazole, (RS)-2-([4-(3-methoxypropoxy)-3-methylpyridin-2-yl]methylsulfinyl)-1H-benzo[d]imidazole] |  |  |  | safety concerns [5]: not raised any notable safety concerns; time to PD steady state of pH elevation [6]: 3 days
Cc1ccc(=O)n(-c2ccccc2)c1 [pirfenidone] | slow the rate of decline in lung function | troublesome GI side effects | many patients with IPF are not able to tolerate these medications | 
